Calls of active or inactive are those of the source.
Columns and labels:
[1] = system: Streptococcus sp. 'group A'; assay: growth inhibition of control SK(-) GAS strain, dose response, counter-screen for streptokinase expression inhibitor project, luminescence, kanamycin, BacTiterGlo, confirmation (AID 1900); format: functional, organism-based
[2] = microbe, parasite or virus in culture; format: functional; settings: Mycobacterium tuberculosis
[3] = system: Streptococcus; assay: Group A Streptococcus viability loss, dose response, counter-screen for streptokinase expression inhibitor project, luminescence, BacTiterGlo (AID 1915); format: functional, organism-based;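 also: potency for reduction of bacterial viability or growth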
[4] = target: T1, Streptokinase A (Streptococcus pyogenes serotype M1, UniProt P10520); assay: S. pyogenes streptokinase expression inhibitors, potency, dose response, plasminogen activation absorbance, OD405 (AID 1914); format: functional, Streptococcus pyogenes M1 GAS;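 also: secreted streptokinase activity via plasminogen activation per viability signal from cell pellet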
T1 sequence (P10520 whole entry): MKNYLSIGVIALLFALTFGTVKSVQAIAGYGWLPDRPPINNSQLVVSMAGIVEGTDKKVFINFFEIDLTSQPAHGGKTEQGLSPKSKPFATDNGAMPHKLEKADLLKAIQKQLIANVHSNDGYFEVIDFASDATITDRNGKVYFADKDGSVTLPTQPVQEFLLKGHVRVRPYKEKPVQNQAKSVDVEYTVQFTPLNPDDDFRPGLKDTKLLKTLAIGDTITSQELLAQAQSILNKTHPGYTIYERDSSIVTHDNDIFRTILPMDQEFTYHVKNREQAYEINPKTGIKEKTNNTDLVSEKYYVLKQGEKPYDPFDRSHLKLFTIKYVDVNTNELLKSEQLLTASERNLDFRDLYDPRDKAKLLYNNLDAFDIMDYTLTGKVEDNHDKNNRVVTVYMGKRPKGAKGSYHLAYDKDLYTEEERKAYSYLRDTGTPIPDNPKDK

[5] = Luminescence Cell-Based Dose Confirmation HTS to Identify Inhibitors of Polyadenylation.; format: functional
[6] = target: Multidrug resistance protein CDR2 (Candida albicans (strain SC5314 / ATCC MYA-2876) (Yeast), UniProt P78595); assay: CaCDR2 efflux pump inhibitors in yeast, dose response, S. cerevisiae AD1-8u, singleplex, Cherry Pick1 hits (AID 588604); format: functional
Chain of Multidrug resistance protein CDR2 (P78595 whole entry): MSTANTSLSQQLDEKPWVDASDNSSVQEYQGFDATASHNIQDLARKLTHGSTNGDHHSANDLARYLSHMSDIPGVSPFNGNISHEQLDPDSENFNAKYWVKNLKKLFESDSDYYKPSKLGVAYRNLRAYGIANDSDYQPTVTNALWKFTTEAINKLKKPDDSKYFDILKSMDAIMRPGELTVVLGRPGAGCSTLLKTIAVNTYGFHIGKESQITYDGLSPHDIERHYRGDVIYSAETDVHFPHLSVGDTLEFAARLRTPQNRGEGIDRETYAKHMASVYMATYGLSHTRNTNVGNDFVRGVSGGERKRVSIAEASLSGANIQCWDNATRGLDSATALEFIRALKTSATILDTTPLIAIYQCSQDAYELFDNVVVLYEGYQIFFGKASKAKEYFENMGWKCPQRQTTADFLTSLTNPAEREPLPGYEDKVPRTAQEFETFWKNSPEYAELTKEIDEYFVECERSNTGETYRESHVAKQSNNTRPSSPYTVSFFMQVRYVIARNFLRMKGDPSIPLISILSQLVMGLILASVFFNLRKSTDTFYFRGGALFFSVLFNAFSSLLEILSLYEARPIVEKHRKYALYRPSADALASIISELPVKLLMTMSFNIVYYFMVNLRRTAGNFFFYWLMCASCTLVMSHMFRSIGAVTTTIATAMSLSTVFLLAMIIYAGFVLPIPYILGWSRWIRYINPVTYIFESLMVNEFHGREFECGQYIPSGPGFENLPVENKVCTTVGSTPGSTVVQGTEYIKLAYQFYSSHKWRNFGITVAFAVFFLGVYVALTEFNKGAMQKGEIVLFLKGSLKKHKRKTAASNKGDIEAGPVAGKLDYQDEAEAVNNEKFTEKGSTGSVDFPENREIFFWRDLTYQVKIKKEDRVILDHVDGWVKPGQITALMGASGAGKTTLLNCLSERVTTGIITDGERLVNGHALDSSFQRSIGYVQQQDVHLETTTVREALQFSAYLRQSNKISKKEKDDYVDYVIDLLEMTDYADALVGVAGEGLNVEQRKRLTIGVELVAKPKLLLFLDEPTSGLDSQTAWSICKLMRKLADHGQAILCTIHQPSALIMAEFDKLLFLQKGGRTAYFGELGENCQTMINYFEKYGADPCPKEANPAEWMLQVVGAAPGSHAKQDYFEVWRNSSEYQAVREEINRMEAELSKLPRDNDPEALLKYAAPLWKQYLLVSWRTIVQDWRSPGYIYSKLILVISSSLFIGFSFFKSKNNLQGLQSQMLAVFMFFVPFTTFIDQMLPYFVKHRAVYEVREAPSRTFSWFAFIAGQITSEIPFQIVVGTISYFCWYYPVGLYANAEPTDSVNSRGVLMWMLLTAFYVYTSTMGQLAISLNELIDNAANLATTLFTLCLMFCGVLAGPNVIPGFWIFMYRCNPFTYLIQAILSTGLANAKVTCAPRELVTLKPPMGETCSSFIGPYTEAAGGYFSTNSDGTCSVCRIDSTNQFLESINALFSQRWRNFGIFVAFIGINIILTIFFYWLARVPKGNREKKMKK

[7] = target: Multidrug resistance protein CDR1 (Candida albicans, UniProt P43071); assay: CaCDR1 efflux pump inhibitors in yeast, dose response, S. cerevisiae AD1-8u, singleplex, Cherry Pick1 hits (AID 588606); format: functional
[8] = target: T2, High affinity choline transporter 1 (Homo sapiens, UniProt Q9GZV3); assay: CHT inhibitors, dose response, cell-based, 10-point CRC, membrane potential dye (AID 588401); format: functional;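 also: membrane potential dye fluorescence of choline-evoked depolarization via CHT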
T2 sequence (Q9GZV3 whole entry): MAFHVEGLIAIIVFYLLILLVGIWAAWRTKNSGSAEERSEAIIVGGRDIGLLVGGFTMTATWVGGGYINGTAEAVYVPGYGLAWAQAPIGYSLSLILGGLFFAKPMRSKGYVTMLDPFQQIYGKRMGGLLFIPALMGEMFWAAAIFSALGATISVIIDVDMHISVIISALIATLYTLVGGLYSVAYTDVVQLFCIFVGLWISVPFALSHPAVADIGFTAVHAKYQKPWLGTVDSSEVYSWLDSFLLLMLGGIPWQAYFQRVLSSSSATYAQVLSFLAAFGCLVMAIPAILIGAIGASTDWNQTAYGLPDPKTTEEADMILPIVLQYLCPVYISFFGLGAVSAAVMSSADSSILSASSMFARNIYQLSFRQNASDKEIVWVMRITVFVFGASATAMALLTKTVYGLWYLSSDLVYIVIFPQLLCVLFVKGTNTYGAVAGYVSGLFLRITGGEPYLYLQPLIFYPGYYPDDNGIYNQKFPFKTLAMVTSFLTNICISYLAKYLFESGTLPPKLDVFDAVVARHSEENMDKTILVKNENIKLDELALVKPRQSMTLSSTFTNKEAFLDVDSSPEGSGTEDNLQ

[9] = target: T2, High affinity choline transporter 1; assay: CHT inhibitors, dose response, cell-based, 5-point CRC, membrane potential dye (AID 504840); format: functional
[10] = target: Insulin-like growth factor 1 receptor (Homo sapiens, UniProt P08069); assay: Navigating the Kinome. Panel member name: IGF1R; format: functional
[11] = target: Serine/threonine-protein kinase N2 (Homo sapiens, UniProt Q16513); format: functional
[12] = target: High affinity nerve growth factor receptor (Homo sapiens, UniProt P04629); format: functional;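 also: NTRK1 tested as one member of a kinome-wide profiling panel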
[13] = target: ALK tyrosine kinase receptor (Homo sapiens, UniProt Q9UM73); format: functional;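 also: ALK tested as one member of a kinase panel screen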
[14] = target: Glycogen synthase kinase-3 beta (Homo sapiens, UniProt P49841); format: functional;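 also: value comes from a broad kinome profiling panel, with GSK3B as the panel member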
[15] = target: Tyrosine-protein kinase BTK (Homo sapiens, UniProt Q06187); format: functional
Chain of Tyrosine-protein kinase BTK (Q06187 whole entry): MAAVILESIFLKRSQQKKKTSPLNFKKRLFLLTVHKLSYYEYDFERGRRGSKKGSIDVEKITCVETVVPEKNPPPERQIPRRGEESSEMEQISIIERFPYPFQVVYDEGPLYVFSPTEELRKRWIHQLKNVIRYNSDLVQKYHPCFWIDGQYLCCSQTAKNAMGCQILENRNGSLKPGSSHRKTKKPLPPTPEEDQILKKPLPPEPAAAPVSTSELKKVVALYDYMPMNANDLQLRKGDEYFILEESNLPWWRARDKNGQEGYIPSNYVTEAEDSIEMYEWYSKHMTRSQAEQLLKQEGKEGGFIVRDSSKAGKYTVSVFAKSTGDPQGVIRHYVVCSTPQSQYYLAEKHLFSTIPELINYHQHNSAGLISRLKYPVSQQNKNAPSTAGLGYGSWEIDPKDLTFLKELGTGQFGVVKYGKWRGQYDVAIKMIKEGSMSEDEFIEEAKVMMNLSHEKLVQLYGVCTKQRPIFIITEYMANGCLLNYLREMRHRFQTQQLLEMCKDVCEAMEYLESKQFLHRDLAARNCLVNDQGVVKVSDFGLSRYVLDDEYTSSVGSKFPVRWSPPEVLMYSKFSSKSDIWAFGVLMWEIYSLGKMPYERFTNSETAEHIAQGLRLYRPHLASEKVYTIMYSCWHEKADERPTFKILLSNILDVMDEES

[16] = target: Dual specificity mitogen-activated protein kinase kinase 1 (Homo sapiens, UniProt Q02750); assay: Navigating the Kinome. Panel member name: MAP2K1; format: functional
[17] = target: Vascular endothelial growth factor receptor 2 (Homo sapiens, UniProt P35968); format: functional
[18] = target: Inhibitor of nuclear factor kappa-B kinase subunit epsilon (Homo sapiens, UniProt Q14164); assay: Navigating the Kinome. Panel member name: IKBKE; format: functional
[19] = target: Dual specificity mitogen-activated protein kinase kinase 2 (Homo sapiens, UniProt P36507); assay: Navigating the Kinome. Panel member name: MAP2K2; format: functional
[20] = target: Tyrosine-protein kinase Lck (Homo sapiens, UniProt P06239); format: functional;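 also: lck was assayed as one member of a kinase panel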
[21] = target: Mitogen-activated protein kinase 8 (Homo sapiens, UniProt P45983); format: functional;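 also: value comes from one member of a kinome-wide kinase profiling panel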
[22] = target: Macrophage colony-stimulating factor 1 receptor (Homo sapiens, UniProt P07333); format: functional;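 also: value comes from the Navigating the Kinome screening panel, CSF1R member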
[23] = target: Tyrosine-protein kinase Fyn (Homo sapiens, UniProt P06241); format: functional
[24] = target: Receptor-type tyrosine-protein kinase FLT3 (Homo sapiens, UniProt P36888); format: functional;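 also: FLT3 was tested as one member of a kinome-wide kinase panel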
[25] = target: Mitogen-activated protein kinase kinase kinase kinase 5 (Homo sapiens, UniProt Q9Y4K4); format: functional;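 also: measured as one member of a kinome-spanning kinase panel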
Chain of Mitogen-activated protein kinase kinase kinase kinase 5 (Q9Y4K4 whole entry): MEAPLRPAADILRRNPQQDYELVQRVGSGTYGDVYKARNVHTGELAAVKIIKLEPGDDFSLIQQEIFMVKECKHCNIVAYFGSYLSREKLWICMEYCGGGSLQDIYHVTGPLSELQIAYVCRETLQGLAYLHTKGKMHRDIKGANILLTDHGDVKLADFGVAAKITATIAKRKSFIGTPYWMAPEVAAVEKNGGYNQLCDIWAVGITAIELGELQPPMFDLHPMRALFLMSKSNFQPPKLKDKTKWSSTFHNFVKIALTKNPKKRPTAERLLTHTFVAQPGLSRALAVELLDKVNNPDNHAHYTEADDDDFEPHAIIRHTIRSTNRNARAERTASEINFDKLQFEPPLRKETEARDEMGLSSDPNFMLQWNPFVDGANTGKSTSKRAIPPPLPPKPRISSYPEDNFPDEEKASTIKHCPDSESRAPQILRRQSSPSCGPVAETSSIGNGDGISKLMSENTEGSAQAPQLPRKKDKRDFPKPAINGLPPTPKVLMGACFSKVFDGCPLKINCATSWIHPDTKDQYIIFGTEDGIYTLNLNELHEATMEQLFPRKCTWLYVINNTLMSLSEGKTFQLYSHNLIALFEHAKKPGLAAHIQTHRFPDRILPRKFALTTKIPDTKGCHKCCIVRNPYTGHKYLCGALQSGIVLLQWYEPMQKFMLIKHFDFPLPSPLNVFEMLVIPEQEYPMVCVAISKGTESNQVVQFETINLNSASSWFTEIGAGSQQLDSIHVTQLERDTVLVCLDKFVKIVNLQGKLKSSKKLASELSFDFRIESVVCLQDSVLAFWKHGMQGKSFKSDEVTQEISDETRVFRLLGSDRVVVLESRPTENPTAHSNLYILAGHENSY

[26] = target: Glycogen synthase kinase-3 alpha (Homo sapiens, UniProt P49840); format: functional;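 also: GSK3A result taken from a broad kinome-wide kinase panel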
Chain of Glycogen synthase kinase-3 alpha (P49840 whole entry): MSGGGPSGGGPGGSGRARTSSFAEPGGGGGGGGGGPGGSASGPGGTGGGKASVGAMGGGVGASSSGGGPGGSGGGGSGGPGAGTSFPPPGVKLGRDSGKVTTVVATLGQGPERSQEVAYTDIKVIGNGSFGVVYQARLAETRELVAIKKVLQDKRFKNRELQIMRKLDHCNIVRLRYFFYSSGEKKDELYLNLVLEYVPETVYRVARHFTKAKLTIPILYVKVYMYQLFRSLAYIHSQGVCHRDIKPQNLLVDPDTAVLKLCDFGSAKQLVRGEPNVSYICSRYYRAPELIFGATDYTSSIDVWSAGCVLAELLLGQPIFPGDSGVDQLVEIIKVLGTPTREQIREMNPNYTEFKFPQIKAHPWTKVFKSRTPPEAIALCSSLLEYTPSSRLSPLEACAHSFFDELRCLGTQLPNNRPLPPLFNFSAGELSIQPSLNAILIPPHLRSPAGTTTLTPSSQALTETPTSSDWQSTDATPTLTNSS

[27] = target: Mitogen-activated protein kinase kinase kinase kinase 2 (Homo sapiens, UniProt Q12851); format: functional;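 also: measured as one member of a kinome-wide kinase panel, with MAP4K2 as the panel entry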
[28] = target: Mitogen-activated protein kinase 14 (Homo sapiens, UniProt Q16539); format: functional;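 also: part of a kinome-wide panel, MAPK14 entry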
Chain of Mitogen-activated protein kinase 14 (Q16539 whole entry): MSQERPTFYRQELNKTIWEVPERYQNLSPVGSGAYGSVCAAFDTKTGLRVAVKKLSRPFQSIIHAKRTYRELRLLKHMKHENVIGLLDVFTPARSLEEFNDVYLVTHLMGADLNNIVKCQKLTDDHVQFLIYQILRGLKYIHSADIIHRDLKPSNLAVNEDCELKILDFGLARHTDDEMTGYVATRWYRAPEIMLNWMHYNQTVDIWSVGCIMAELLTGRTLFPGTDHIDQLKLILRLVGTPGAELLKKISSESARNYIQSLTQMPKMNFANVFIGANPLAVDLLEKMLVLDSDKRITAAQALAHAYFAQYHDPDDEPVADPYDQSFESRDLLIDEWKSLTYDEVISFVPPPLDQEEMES

[29] = target: Serine/threonine-protein kinase TBK1 (Homo sapiens, UniProt Q9UHD2); assay: Navigating the Kinome. Panel member name: TBK1; format: functional
[30] = target: Dual specificity tyrosine-phosphorylation-regulated kinase 1A (Homo sapiens, UniProt Q13627); format: functional;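 also: measured against DYRK1A as one member of a broad kinome profiling panel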
[31] = target: Aurora kinase A (Homo sapiens, UniProt O14965); format: functional;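 also: value from the Navigating the Kinome kinase panel profiling, panel entry STK6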
[32] = target: cAMP-dependent protein kinase catalytic subunit alpha (Homo sapiens, UniProt P17612); format: functional
[33] = target: Serine/threonine-protein kinase TAO1 (Homo sapiens, UniProt Q7L7X3); format: functional
[34] = target: Macrophage-stimulating protein receptor (Homo sapiens, UniProt Q04912); assay: Navigating the Kinome. Panel member name: MST1R; format: functional
[35] = target: Vascular endothelial growth factor receptor 1 (Homo sapiens, UniProt P17948); format: functional;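 also: measured within a kinome-wide profiling panel, FLT1 as the panel member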
[36] = target: MAP/microtubule affinity-regulating kinase 3 (Homo sapiens, UniProt P27448); format: functional;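 also: MARK3 affinity measured as one member of a kinome panel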
[37] = target: Cyclin-dependent kinase 9 (Homo sapiens, UniProt P50750); format: functional;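 also: value from the CDK9 entry of a kinome-spanning kinase panel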
[38] = target: Tyrosine-protein kinase receptor TYRO3 (Homo sapiens, UniProt Q06418); format: functional;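 also: TYRO3 value obtained as one member of a kinome-wide profiling panel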
[39] = target: 5'-AMP-activated protein kinase catalytic subunit alpha-1 (Homo sapiens, UniProt Q13131); format: functional
[40] = target: Mitogen-activated protein kinase 9 (Homo sapiens, UniProt P45984); format: functional;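 also: value from a kinome panel profiling assay, MAPK9 panel entry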
[41] = target: Tyrosine-protein kinase ABL1 (Homo sapiens, UniProt P00519); format: functional
[42] = target: Death-associated protein kinase 3 (Homo sapiens, UniProt O43293); format: functional;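 also: measured as one member of a kinome-wide profiling panel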
[43] = target: Dual specificity protein kinase CLK4 (Homo sapiens, UniProt Q9HAZ1); format: functional
[44] = target: Dual specificity protein kinase CLK2 (Homo sapiens, UniProt P49760); format: functional
Chain of Dual specificity protein kinase CLK2 (P49760 whole entry): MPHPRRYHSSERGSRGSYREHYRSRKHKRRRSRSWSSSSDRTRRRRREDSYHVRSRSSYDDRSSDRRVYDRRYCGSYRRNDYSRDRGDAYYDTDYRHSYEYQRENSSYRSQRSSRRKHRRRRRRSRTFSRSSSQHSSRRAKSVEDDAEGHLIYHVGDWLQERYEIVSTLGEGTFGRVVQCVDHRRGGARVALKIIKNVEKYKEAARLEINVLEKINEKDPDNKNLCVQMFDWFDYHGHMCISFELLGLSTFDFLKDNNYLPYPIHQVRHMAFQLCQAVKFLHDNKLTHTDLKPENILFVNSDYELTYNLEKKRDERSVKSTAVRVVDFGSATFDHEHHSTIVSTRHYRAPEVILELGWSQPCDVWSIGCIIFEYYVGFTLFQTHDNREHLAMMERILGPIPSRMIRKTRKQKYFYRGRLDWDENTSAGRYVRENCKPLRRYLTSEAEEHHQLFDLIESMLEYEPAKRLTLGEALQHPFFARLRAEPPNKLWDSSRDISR

[45] = target: Platelet-derived growth factor receptor alpha (Homo sapiens, UniProt P16234); assay: Navigating the Kinome. Panel member name: PDGFRA; format: functional
[46] = target: G protein-coupled receptor kinase 5 (Homo sapiens, UniProt P34947); assay: Navigating the Kinome. Panel member name: GPRK5; format: functional
Chain of G protein-coupled receptor kinase 5 (P34947 whole entry): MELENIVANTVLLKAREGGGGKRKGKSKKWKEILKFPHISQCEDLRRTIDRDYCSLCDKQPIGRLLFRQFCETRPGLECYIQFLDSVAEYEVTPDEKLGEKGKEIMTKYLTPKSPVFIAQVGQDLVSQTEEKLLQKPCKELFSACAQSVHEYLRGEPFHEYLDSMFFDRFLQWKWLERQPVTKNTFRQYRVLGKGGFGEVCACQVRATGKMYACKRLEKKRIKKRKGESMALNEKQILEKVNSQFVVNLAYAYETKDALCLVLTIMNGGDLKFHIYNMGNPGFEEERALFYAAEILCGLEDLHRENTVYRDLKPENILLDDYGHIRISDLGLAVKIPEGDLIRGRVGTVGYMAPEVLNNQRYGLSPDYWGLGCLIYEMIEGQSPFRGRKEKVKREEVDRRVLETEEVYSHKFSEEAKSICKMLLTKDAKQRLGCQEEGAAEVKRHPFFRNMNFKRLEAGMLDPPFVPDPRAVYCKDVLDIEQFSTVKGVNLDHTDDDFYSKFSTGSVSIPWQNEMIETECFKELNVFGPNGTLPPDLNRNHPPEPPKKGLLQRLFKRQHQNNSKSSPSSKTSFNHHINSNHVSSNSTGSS

[47] = target: Serine/threonine-protein kinase PAK 4 (Homo sapiens, UniProt O96013); format: functional;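 also: value obtained within a kinome profiling panel in which PAK4 was one of the panel members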
[48] = target: Calcium/calmodulin-dependent protein kinase type II subunit alpha (Homo sapiens, UniProt Q9UQM7); assay: Navigating the Kinome. Panel member name: CAMK2A; format: functional
[49] = target: Serine/threonine-protein kinase pim-1 (Homo sapiens, UniProt P11309); format: functional
[50] = target: Leucine-rich repeat serine/threonine-protein kinase 2 (Homo sapiens, UniProt Q5S007); format: functional;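 also: value from a broad kinome-wide panel profiling study in which LRRK2 was one of the kinases tested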
[51] = target: Mitogen-activated protein kinase kinase kinase kinase 4 (Homo sapiens, UniProt O95819); format: functional
[52] = target: Tyrosine-protein kinase JAK2 (Homo sapiens, UniProt O60674); format: functional;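 also: JAK2 tested as one member of a kinase panel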
[53] = target: Leukocyte tyrosine kinase receptor (Homo sapiens, UniProt P29376); assay: Navigating the Kinome. Panel member name: LTK; format: functional
[54] = target: Fibroblast growth factor receptor 1 (Homo sapiens, UniProt P11362); format: functional
[55] = target: Cyclin-dependent kinase 8 (Homo sapiens, UniProt P49336); assay: Navigating the Kinome. Panel member name: CDK8; format: functional
[56] = target: cAMP-dependent protein kinase catalytic subunit PRKX (Homo sapiens, UniProt P51817); format: functional
[57] = target: Tyrosine-protein kinase JAK3 (Homo sapiens, UniProt P52333); format: functional

In the case of CCc1ccc(NC2=NC(=O)/C(=C/c3cc(OC)c(O)c(OC)c3)S2)cc1, the EC50 [1] is reported as 2.67 µM (active), the CC50 [2] is reported as > 40 µM (active) and the EC50 [3] is reported as 28.2 µM (active). The EC50 [4] was > 150 µM (not active), the EC50 [5] was 10.5 µM (active) and the EC50 [6] was 19.2 µM (active). The EC50 [7] was 6.05 µM (active).

With Cc1nn2c(N3CCN(CCO)CC3)c3c(nc2c1-c1ccccc1)CCCC3 the IC50 [8] was 4.74 µM (active) and the IC50 [9] was 6.95 µM (active).

With Cc1cc(O)nc2[nH]nc(-c3cccc(-c4ccc(C#N)cc4)c3)c12 the Ki [10] was > 2.51 µM (inactive), the Ki [11] was > 5.01 µM (inactive) and the Ki [12] was > 3.16 µM (inactive). The Ki [13] was > 6.31 µM (inactive), the Ki [14] was > 3.98 µM (inactive) and the Ki [15] was > 6.31 µM (inactive). For the same molecule, the Ki [16] was > 3.16 µM (inactive), the Ki [17] was > 2.51 µM (inactive) and the Ki [18] was > 3.16 µM (inactive). The Ki [19] was > 3.98 µM (inactive), the Ki [20] was > 6.31 µM (inactive) and the Ki [21] was > 5.01 µM (inactive). For the same molecule, the Ki [22] was > 2.51 µM (inactive), the Ki [23] was > 6.31 µM (inactive) and the Ki [24] was > 3.16 µM (inactive). For the same molecule, the Ki [25] was > 3.98 µM (inactive), the Ki [26] was 3.98 µM (active) and the Ki [27] was > 2.51 µM (inactive). The Ki [28] was > 3.98 µM (inactive), the Ki [29] was > 3.16 µM (inactive) and the Ki [30] was > 2 µM (inactive). The Ki [31] was > 1.58 µM (inactive), the Ki [32] was > 1.26 µM (inactive) and the Ki [33] was > 6.31 µM (inactive). The Ki [34] was > 3.98 µM (inactive), the Ki [35] was > 3.98 µM (inactive) and the Ki [36] was 0.001 µM (active). The Ki [37] was > 1.58 µM (inactive), the Ki [38] was > 3.16 µM (inactive) and the Ki [39] was > 3.16 µM (inactive). For the same molecule, the Ki [40] was > 3.98 µM (inactive), the Ki [41] was > 3.98 µM (inactive) and the Ki [42] was > 5.01 µM (inactive). For the same molecule, the Ki [43] was > 2.51 µM (inactive), the Ki [44] was > 3.98 µM (inactive) and the Ki [45] was > 2.51 µM (inactive). For the same molecule, the Ki [46] was > 3.98 µM (inactive), the Ki [47] was > 5.01 µM (inactive) and the Ki [48] was > 7.94 µM (inactive). For the same molecule, the Ki [49] was > 6.31 µM (inactive), the Ki [50] was > 2.51 µM (inactive) and the Ki [51] was > 5.01 µM (inactive). The Ki [52] was > 2.51 µM (inactive), the Ki [53] was > 2.51 µM (inactive) and the Ki [54] was > 3.98 µM (inactive). For the same molecule, the Ki [55] was > 3.98 µM (inactive), the Ki [56] was > 3.16 µM (inactive) and the Ki [57] was > 5.01 µM (inactive).

Reference: ChEMBL document CHEMBL1201862, “PubChem BioAssay data set” (2004)
